Laboratory results from PubChem BioAssay (NCI).
Where “and” joins values, the source holds several entries; their conditions need not be identical. Identical values can stand only once.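 Briefly, cells in 96-well plates were exposed to five compound concentrations for 48 h, and endpoints were estimated by linear interpolation. GI50 is the concentration that inhibits growth by half. TGI: total growth inhibition.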

What was measured:
Experiment in all cases: growth of human tumour cells (NCI), 48 h
SF-539 CNS = test system: SF-539 CNS
U251 CNS = test system: U251 CNS
HOP-92 NSCLC = test system: HOP-92 NSCLC
HT29 colon = test system: HT29 colon
HOP-62 NSCLC = test system: HOP-62 NSCLC
NCI-H522 lung = test system: NCI-H522 lung
RPMI-8226 leukemia = test system: RPMI-8226 leukemia
COLO 205 colon = test system: COLO 205 colon
HCC-2998 colon = test system: HCC-2998 colon
HL-60(TB) leukemia = test system: HL-60(TB) leukemia

Row | SMILES | TGI (SF-539 CNS) | TGI (U251 CNS) | TGI (HOP-92 NSCLC) | TGI (HT29 colon) | TGI (HOP-62 NSCLC) | TGI (NCI-H522 lung) | TGI (RPMI-8226 leukemia) | TGI (COLO 205 colon) | TGI (HCC-2998 colon) | TGI (HL-60(TB) leukemia) | GI50 (SF-539 CNS) | GI50 (U251 CNS) | GI50 (HOP-92 NSCLC) | GI50 (HT29 colon) | GI50 (HOP-62 NSCLC) | GI50 (NCI-H522 lung) | GI50 (COLO 205 colon) | GI50 (HL-60(TB) leukemia) | GI50 (HCC-2998 colon)
1 | O=C1c2c(Br)sc(Br)c2[C@@H](O)[C@H]1O | 29.3 µM | 20.8 µM | 35.3 µM | 40.4 µM | 30.6 µM | 3.54 µM | 47.6 µM | 28.5 µM | 34.4 µM | 28.6 µM | – | – | – | – | – | – | – | – | –
2 | CN(C)c1ccc(-c2ccc(-c3ccc(C(=N)N)cn3)o2)cc1 | 2.9 µM | 2.91 µM | 2.87 µM | 1.74 µM | 3.32 µM | 3.44 µM | – | 2.28 µM | – | 3.73 µM | 1.54 µM | 1.53 µM | 1.27 µM | 0.479 µM | 1.74 µM | 1.84 µM | 1.04 µM | 1.76 µM | –
3 | COc1ccc(N2C(=O)C(=O)C3(CCCCC3)C2=O)c2ccccc12 | > 10 µM | > 10 µM | – | > 10 µM | > 10 µM | > 10 µM | > 10 µM | > 10 µM | > 10 µM | > 10 µM | – | – | – | – | – | – | – | – | –
4 | O=c1c2cc(O)ccc2n2nnc3ccc(NCCNCCO)c1c32 | 15.9 µM and 14.9 µM | 7.43 µM and 13.3 µM | 16.5 µM and 12.9 µM | > 66.3 µM and 29.1 µM | 43.4 µM and 18 µM | 2.33 µM and 4.8 µM | 65 µM and 31.7 µM | 50.9 µM and 21.7 µM | 26.4 µM and 14.5 µM | > 42.2 µM and 13.1 µM | – | – | – | – | 10.1 µM and 3.25 µM | 0.582 µM and 1.47 µM | – | 6.46 µM and 1.88 µM | 10.9 µM and 3.43 µM
5 | CC(=O)c1ccc(Nc2c3ccccc3nc3occc23)cc1 | – | > 4.64 µM | 83.5 µM | 0.402 µM | > 100 µM | < 0.01 µM | 4.28 µM | 0.136 µM | 0.794 µM | < 0.01 µM | – | – | – | – | – | – | – | – | –
6 | O=[N+]([O-])c1ccc(N=Nc2c(O)[nH]c3ccccc23)c([N+](=O)[O-])c1 | 10.2 µM | 47.8 µM | 12.5 µM | 81.7 µM | 24.2 µM | > 100 µM | > 100 µM | 71.2 µM | 44.1 µM | > 100 µM | – | – | – | – | – | – | – | – | –
7 | COc1ccccc1-c1c(C#N)c(N)[nH]c(=S)c1C#N | > 100 µM | > 100 µM | > 100 µM | > 100 µM | > 100 µM | > 100 µM | > 100 µM | > 100 µM | > 100 µM | > 100 µM | – | – | – | – | – | – | – | – | –
8 | Cc1ccc(-c2cc(-c3ccc(Cl)cc3)nc(/N=C3\C(=O)N(CN(C)C)c4ccccc43)n2)cc1 | > 100 µM | > 100 µM | > 100 µM | > 100 µM | > 100 µM | 69.4 µM | – | > 100 µM | – | 26.2 µM | – | – | – | – | – | – | – | – | –
9 | Nc1nc(SCC(=O)c2ccc(Br)cc2)c2[nH]cnc2n1 | – | > 100 µM | 62.1 µM | > 100 µM | > 100 µM | 86.5 µM | > 100 µM | 46.8 µM | – | 63.1 µM | – | – | – | – | – | – | – | – | –
10 | COc1cccc(C23CCN(C)C(CC(O)C2)C3)c1OC (stereo not drawn) | > 100 µM | > 100 µM | > 100 µM | > 100 µM | > 100 µM | > 100 µM | > 100 µM | > 100 µM | – | > 100 µM | – | – | – | – | – | – | – | – | –
11 | CN1CCC(C(O)(c2ccccc2)c2ccc(Br)cc2)CC1 (stereo not drawn) | 32.2 µM | 43.1 µM | 70.4 µM | 51.9 µM | 83.8 µM | 30.4 µM | 45.8 µM | 28.7 µM | 25.1 µM | 66.5 µM | – | – | – | – | – | – | – | – | –
12 | O=P(NCCCO)(OCc1ccccc1)N(CCCl)CCCl (stereo not drawn) | > 100 µM | > 100 µM | > 100 µM | > 100 µM | – | > 100 µM | – | > 100 µM | > 100 µM | > 100 µM | – | – | – | – | – | – | – | – | –
13 | COc1ccc2nc3cc(Cl)ccc3c(NCCCN3CCN(CCCNc4ccc5nnn6c7ccccc7c(=O)c4c56)CC3)c2c1 | 8.14 µM | > 25 µM | > 25 µM | > 25 µM | > 25 µM | > 23.8 µM | > 25 µM | > 25 µM | > 9.86 µM | > 18.7 µM | – | – | – | – | – | – | – | – | –
14 | COc1ccc(CCn2cncn2)cc1 | > 100 µM | > 100 µM | > 100 µM | > 100 µM | > 100 µM | > 100 µM | – | > 100 µM | > 100 µM | > 100 µM | – | – | – | – | – | – | – | – | –
15 | CCCCCCCCCCCCCCCc1nc(=S)[nH][nH]1 | > 100 µM | > 100 µM | – | > 100 µM | > 100 µM | 68.2 µM | > 100 µM | – | > 100 µM | > 100 µM | – | – | – | – | – | – | – | – | –
16 | CCOc1nc2c(N3CCCC3)nc(N3CCNCC3)nc2nc1NCc1ccccc1 | 2.85 µM | 2.39 µM | 2.5 µM | 2.6 µM | 2.33 µM | 2.2 µM | 3.37 µM | 1.93 µM | 2.62 µM | 2.99 µM | – | – | – | – | – | – | – | – | –
